In patent publication US8445431B2, “Ligands having metal binding ability and targeting properties” (The Ohio State University, priority 2004, dated 2013):
No end group written: not given here.

Columns and labels:
[1] = test system: pUC19 supercoiled plasmid DNA; test: Plasmid DNA cleavage, agarose gel electrophoresis and quantitation; assay type: biochemical
Procedure: Plasmid pUC19 (2686 bp) was purchased from New England Biolabs Inc. The plasmid was transformed into DH5α competent cells, amplified, and pure plasmid isolated using QIAGEN protocols. Fresh plasmid DNA (over 90-95% supercoiled) was prepared before each experiment to avoid contamination by any other form of plasmid DNA. In general, DNA cleavage experiments were performed with 50 μM base pair concentration of pUC19, 25 μM Cu-peptide, and 250 μM ascorbate in 10 mM Tris buffer, pH 7.4, at 37° C. A control reaction was carried out using the same conditions as the cleavage reaction, but lacking the Cu-peptide complex. The reactions were quenched with a loading buffer containing 0.5 M EDTA.
Agarose gel electrophoresis (0.8%) containing ethidium bromide was performed under standard conditions. DNA samples were run on horizontal gels in 1×TAE buffer for 90 min at […].
Quantitation of closed circular, nicked and linear DNA was made by densitometric analysis of ethidium bromide containing agarose gels. Quantitation was performed by fluorescence imaging by use of a Gel-Doc 1000 (BioRad) and data analysis with Multianalysis software (version 1.1) provided by the manufacturer using the volume quantitation method. In all cases, background fluorescence was subtracted by reference to a lane containing no DNA. A correction factor of 1.47 was used for supercoiled DNA, since the ability of ethidium bromide to intercalate into supercoiled DNA (form I) is decreased relative to nicked (form II) and linear DNA (form III). The fraction of each form of DNA was calculated by dividing the intensity of each band by the total intensities of all the bands in the lane. All results were obtained from experiments that were performed at least in triplicate.
Consequently, the reaction was considered in terms of the standard rate law shown in equation 3. The initial rate (V0) corresponding to less than 5% conversion was considered as a function of [complex]^+ (equation 4 and 5). Rate=V=d[DNA]/dt=kobs[complex]t^m (3) • where kobs=kn, [DNA] when t=0, V0=kobs[complex]0^m (4) and ln V0=m ln[complex]0+ln kobs (5) A plot of ln V0 versus ln [[GGH-Cu]^−]0 at constant DNA concentration produced a straight line relationship (R^2=0.99) (FIG. 27A).
Investigation of DNA linearization. Following cleavage, the fraction of full length linear DNA, f(III), is related to the number, n2, of double-strand breaks per molecule given by the first term of a Poisson distribution (equation 1). f(III)=n2exp(−n2) (1) The sum of single-strand, n1, and double-strand, n2, breaks per molecule (n1+n2) was determined from the fraction f(I) of supercoiled DNA remaining after treatment with the [peptide-Cu] reagent. f(I)=exp[−(n1+n2)] […] In these studies, both n1 and n2 were calculated by use of equations (1) and (2).

RRE RNA = RRE RNA cleavage, denaturing PAGE and mass spectrometry; assay type: biochemical, HIV; conditions: for RRE RNA cleavage (PAGE / mass spectrometry): in the presence of ascorbate, 1:1 with RRE RNA, 37° C., 6 hours; for t1 of RRE RNA substrate decrease: [RRE]=5 μM, complex/RRE 1:1, 37° C.
Procedure: Control reactions were carried out at the same time (FIG. 18). The reactions were quenched with a loading buffer containing 8 M Urea and 0.5 M EDTA, but without dyes. The loading buffer with dyes was run in another lane to control the electrophoresis. The reaction samples were loaded onto either 15% or 20% polyacrylamide/8M urea denaturing gels (from American Bioanalytical) and electrophoresed at 300 V for 8 h. To avoid any influence on fluorescein, the reactions and gel eletrophoresis were performed in the dark. Each experiment was carried out at least in triplicate.
RNA cleavage reactions were performed in 40 μl total volumes with 100 μM unlabeled RRE RNA, 1:1 concentration ratio of Cu-peptide complex with 1 mM ascorbate in 20 mM Hepes buffer, 100 mM NaCl, pH=7.4 at 37° C. Control reactions were carried out with RRE RNA and ascorbate. ESI/MS was used to get the mass of the cleavage products. Electrospray ionization (ESI) experiments were performed on a Micromass Q-Tof™ II (Micromass, Wythenshawe, UK) mass spectrometer equipped with an orthogonal nanospray source from New Objective, Inc. (Woburn, Mass.) operated in negative ion mode. Sodium Iodide was used for mass calibration for a calibration range of m/z 500-3000. Salt buffers from the RNA samples were removed using ZipTips (Millipore, Billerica, Mass.) following recommended manufacturer protocols. The elutants from the ZipTip were used directly and infused into the electrospray source at a rate of […]. Optimal ESI conditions were: capillary voltage 3000 V, source temperature 110° C. and a cone voltage of 60 V. Q1 was set to optimally pass ions from m/z 500-3000 and all ions transmitted into the pusher region of the TOF analyzer were scanned over m/z (your ramge) with a 1 s integration time. Data was acquired in continuum mode until acceptable averaged data was obtained (10-15 minutes). ESI data was deconvoluted using MaxEnt I provided by Micromass (FIGS. 19-21) and the cleavage sites were assigned (FIG. 22).

HCV IRES RNA [2] = test: HCV IRES RNA cleavage, denaturing gel; assay type: biochemical; conditions: RNA 2 μM, RNA to metal complex 1 to 10, 1 mM ascorbic acid, 37° C., 24 hours
Procedure: The cleavage of HCV IRES RNA by GGHG-(D) peptide copper complexes was studied. […] The HCV IRES RNA cleavage reactions by peptide copper complexes, free Cu^2+, or other peptide metal complexes were carried out at 37° C. in a buffer of 50 mM HEPES pH 7.0, 100 mM NaCl, 2 mM MgCl2. After reactions, 2 μL of loading buffer containing 10% glycerol, 0.05M EDTA, and 6M urea was added into each 10 μL reaction mixture and was then heated at 95° C. for 5 min before loading into 20% acrylamide, 8M urea gel with 0.5×TAE buffer and running voltage around 100 V for overnight. Before cleavage reaction, HCV IRES RNA was heated at 95° C. for 5 min and cooled to room temperature in order to fold into correct structure.
The concentration of RNA in cleavage reaction is 2 μM. The ratio of RNA to metal complexes is 1 to 10. The oxidative cleavage reaction is performed by adding ascorbic acid to a final concentration of 1 mM and a total volume of 10 μL at 37° C. for 24 hours. The result of the cleavage reaction is obtained by running a 20% denaturing polyacrylamide gel. […] No hydrolytic product has been observed from the result. […]
The time-dependence of cleavage was also examined. […] After the reaction is finished, the result of the reaction is analyzed by running 20% acrylamide gel. The cleavage effect by peptide copper complexes is analyzed by the intensity of the fluorescent image of each band by Biorad GelDoc. […]

HCV IRES RNA [3] = test: Binding to fluorescein-labeled HCV IRES, 96-well fluorescent reader; conditions: 10 nM HCV IRES, 50 mM HEPES pH 7.0, 100 mM NaCl, 2 mM MgCl2; read-out: dissociation constant between HCV IRES and the ligand
Procedure: The binding constants for peptides to HCV IRES was determined by fluorescence methods. The sequence of the HCV IRES RNA is: […] (SEQ ID NO: 33). The sequence of the peptide recognition motif is: Y-(D)-RFK. The sequence of the metal binding peptide is: GGH. The sequence of the ligand having a metal binding domain and a recognition domain is GGHGY-(D)-RFK, where (D) indicates a (D) configuration amino acid.
A 10 nM HCV IRES with a fluoroscein label was titrated with increasing concentrations of the ligand, ranging from 5 to 1000 nM in a 50 mM HEPES pH 7.0, 100 mM NaCl, 2 mM MgCl2 to a total volume […]. The water used in this experiment was treated with DEPC at 37° C. overnight and autoclaved. HCV IRES RNA was heated at 95° C. for three minutes, and then slowly cooled to the room temperature. The binding event was determined by 96-well fluorescent reader with excitation wavelength at 494 nm and emission wavelength at 520 nm. The result data was plotted as fraction versus peptide concentration (FIG. 29) and then fitted with one site-binding model, where y is equal to API, and x is peptide concentration. y=Bx/(Kd+x)

HIV RRE RNA = test: Fluorescence quenching binding to 5'-fluorescein labeled RRE RNA; conditions: 20 mM Hepes, 100 mM NaCl, pH 7.4, room temperature
Procedure: (§1) A 6 nM solution of 5′-fluorescein labeled RRE RNA (molecular concentration) was prepared in 20 mM Hepes buffer, 100 mM NaCl, pH=7.4. A 1 μl aliquot of 5 μM (for RRE test) or 25 μM (for TAR test) peptide or Cu-peptide complex was measured in a 300 μl quartz cuvette at room temperature using a Perkin Elmer LS50B spectrofluorimeter, with excitation (slit=6) and emission (slit=6) wavelengths set at 490 nm and 515 nm, respectively. Dissociation constants were obtained by fitting fluorescence quenching date to a one site binding equation r=Bx/(Kd+X) with binding function r (where r=(yt−y0)/(yfinal−yinitial)) versus x as peptide or Cu-peptide complex concentration (FIG. 17). The values for the dilution effect have already been subtracted from each point. Since our Cu-Rev1 complex has very little absorbance (ε515˜30 M^−1cm^−1), the inner filter effect is negligible in this assay.

[4] = test system: GFP-RRE construct (RRE RNA fused downstream of GFP mRNA); assay type: cell-based, Escherichia coli; conditions: 10 μM final concentration; for GFP (GFP-RRE construct) expression, fluorescence intensity/total protein (mg) of control: control without any treatment
Procedure: Escherichia coli strain BL21 (DE3) cells containing pET-21 GFP (as non-specific cleavage control) or pET-21GFP-RRE plasmid were grown to an OD600 of around 0.6, and the over-expression was induced with 0.5 mM IPTG at 37° C. incubation. The cell pellets from 500 1 culture were resuspended in resuspension buffer,^3 then lysed with sonicating. After centrifugation (14,000 rpm for 20 min), the cell lysate for each sample was transferred onto 96 well plate and the fluorescence of GFP protein was monitored by a Perkin Elmer LS50B spectrofluorimeter. Excitation and emission wavelengths were set to 390 nm and 510 nm, respectively. The amount of total protein in each cell lysate was measured with Bio-Rad protein assay.
Basically, once the RRE RNA fused downstream of the GFP mRNA is recognized and cleaved by metal-rev peptide complexes, the expression level of GFP protein will decrease accordingly, which can be monitored by the fluorescence intensity.
The expression level of GFP (GFP-RRE construct) was managed by the fluorescent emission intensity at 510 nm, with λex=390 nm. […] To correct the influence of the total number of cells lysated, the fluorescent emission intensity at 510 nm was divided by the amount of total protein for each sample.

HIV TAR RNA = test: Fluorescence quenching binding to 5' FL-labeled TAR RNA (binding specificity); conditions: 20 mM Hepes, 100 mM NaCl, pH 7.4, room temperature
Procedure: as §1

## [Cu+2] [Cu^2+(aq), reference compound]
[1]; with ascorbate
  DNA cleavage products / pattern on gel: smear pattern
RRE RNA
  RRE RNA cleavage (PAGE / mass spectrometry): random cleavage
HCV IRES RNA [2]
  HCV IRES RNA cleavage (gel): efficiency is significantly lower

## GGHGY-(D)-RFK [the ligand]
HCV IRES RNA [3]
  Kd: 5.2 nM

## GGHTRQARRNRRRRWRERQR [Rev1]
HIV RRE RNA
  Kd: ~30 nM
[4]
  GFP (GFP-RRE construct) expression, fluorescence intensity/total protein (mg) of control: around 40%
HIV TAR RNA
  Kd: ~5000 nM
RRE RNA
  RRE RNA cleavage (PAGE / mass spectrometry): no reaction was observed

## TRQARRNRRRRWRERQR [Rev peptide, reference compound]
[4]
  effect on GFP (GFP-RRE construct) expression: No decrease

## [GGH-Cu]^−: complex of peptide GGH with divalent copper (Gly-Gly-His; also: complex with divalent copper)
[1]; [DNA]=50 μM, complex 25 μM, ascorbate 250 μM
  time to quantitative production of nicked plasmid DNA (form II): ≤ 28 min
[1]; [DNA]=50 μM, complex 25 μM, ascorbate 250 μM, 10 mM Tris pH 7.4, 37° C.
  kobs, pseudo-first order disappearance of supercoiled DNA: ~0.07 min⁻¹
[1]; from ln V0 plots, with ascorbate
  k2, second-order rate constant of DNA cleavage: ~39 M⁻¹ s⁻¹
[1]; in the presence of ascorbate
  concentration at which DNA cleavage activity is evident: 10 µM
[1]; with ascorbate
  DNA cleavage products / pattern on gel: linear DNA was not found

## copper complex of Rev1 peptide GGHTRQARRNRRRRWRERQR [Cu-Rev1]
HIV RRE RNA
  Kd: ~35 nM
[4]
  GFP (GFP-RRE construct) expression, fluorescence intensity/total protein (mg) of control: around 40%
HIV TAR RNA
  Kd: ~5000 nM
RRE RNA; hydrolytic condition
  RRE RNA cleavage in the absence of ascorbate: much slower pace
  t1 of RRE RNA substrate decrease: 6.36 h
RRE RNA; listed as Cu-Rev1 peptide complex
  RRE RNA cleavage (PAGE / mass spectrometry): three specific cleavage sites
RRE RNA; listed as Cu-peptide complex
  RRE RNA cleavage (PAGE / mass spectrometry): effective
RRE RNA; oxidative condition with ascorbate
  t1 of RRE RNA substrate decrease: 4.75 h
